From US20260240847A1, “COMPOUNDS WITH ANTI-TUMOR ACTIVITY AGAINST CANCER CELLS BEARING TYROSINE KINASE INHIBITOR RESISTANT EGFR MUTATIONS” (BOARD OF REGENTS, THE UNIVERSITY OF TEXAS SYSTEM, priority 2019, published 2026)

Legend:
Assay in all cases: Ba/F3 cell viability, Cell Titer Glo
[1] = target: EGFR L747 K754del insATSPE (Homo sapiens, UniProt P00533, DEL747-749/K754E); conditions: read-out: IC50 Values; Ba/F3 cells expressing EGFR L747 K754del insATSPE, 72 hours
Protocol: (§1) Cell viability was determined by the Cell Titer Glo assay.
(§2) Briefly, stable Ba/F3 cell lines were generated by retroviral transduction of Ba/F3 cell line for 12 hours. […] Three days after transduction, 2 μg/ml puromycin (Invitrogen) was added to the RPMI media. Cell lines were then grown in the absence of IL-3 for two weeks and cell viability was assessed every three days using the Cell Titer Glo assay (Progema).
(§3) Briefly, 2000-3000 cells per well were plated in 384-well plates (Greiner Bio-One) in technical triplicate. Cells were treated with seven different concentrations of tyrosine kinase inhibitors or vehicle alone at a final volume of 40 μL per well. After 3 days, 11 μL of Cell Titer Glo was added to each well. Plates were shaken for 15 minutes, and bioluminescence was determined using a FLUOstar OPTIMA multi-mode micro-plate reader (BMG LABTECH). Bioluminescence values were normalized to DMSO treated cells, and normalized values were plotted in GraphPad Prism using non-linear regression fit to normalized data with a variable slope.

[2] = target: EGFR l740duplPVAK (Homo sapiens, UniProt P00533, DUP740-745); conditions: read-out: IC50 Values; Ba/F3 cells expressing EGFR l740duplPVAK, 72 hours
Protocol: as §1, §2, §3

[3] = target: EGFR G719A L861Q (Homo sapiens, UniProt P00533, G719A/L861Q); conditions: read-out: IC50 Values; Ba/F3 cells expressing EGFR G719A L861Q, 72 hours
Protocol: as §1, §2, §3

[4] = target: EGFR Ex19delT790M L718V (Homo sapiens, UniProt P00533, DEL746-750/L718V/T790M); conditions: read-out: IC50 Values; Ba/F3 cells expressing EGFR Ex19delT790M L718V, 72 hours
Protocol: as §1, §2, §3

[5] = target: EGFR A767insASV (Homo sapiens, UniProt P00533, DUP767-769); conditions: read-out: IC50 Values; Ba/F3 cells expressing EGFR A767insASV, 72 hours
Protocol: as §1, §2, §3

[6] = target: EGFR L833F (Homo sapiens, UniProt P00533, L833F); conditions: read-out: IC50 Values; Ba/F3 cells expressing EGFR L833F, 72 hours
Protocol: as §1, §2, §3

[7] = target: EGFR L833V (Homo sapiens, UniProt P00533, L833V); conditions: read-out: IC50 Values; Ba/F3 cells expressing EGFR L833V, 72 hours
Protocol: as §1, §2, §3

[8] = target: EGFR Ex19del T790M C797S (Homo sapiens, UniProt P00533, C797S/DEL746-750/T790M); conditions: read-out: IC50 Values; Ba/F3 cells expressing EGFR Ex19del T790M C797S, 72 hours
Protocol: as §1, §2, §3

[9] = target: EGFR Ex19del/C797S (Homo sapiens, UniProt P00533, C797S/DEL746-750); conditions: read-out: IC50 Values; Ba/F3 cells expressing EGFR Ex19del/C797S, 72 hours
Protocol: (§4) The transforming capability of the mutations was then evaluated by sustained cell viability following IL-3 deprivation. Activating EGFR mutant Ba/F3 cells were then screened against EGFR TKIs. Cell viability was determined by the Cell Titer Glo assay.
(§5) Ba/F3 cells expressing acquired atypical mutations spanning exons 18-21 were treated with inhibitors for 72 hours. […] Briefly, stable Ba/F3 cell lines were generated by retroviral transduction of Ba/F3 cell line for 12 hours. […] Three days after transduction, 2 μg/ml puromycin (Invitrogen) was added to the RPMI media. Cell lines were then grown in the absence of IL-3 for two weeks and cell viability was assessed every three days using the Cell Titer Glo assay (Progema).
as §3

[10] = target: EGFR L718Q T790M (Homo sapiens, UniProt P00533, L718Q/T790M); conditions: read-out: IC50 Values; Ba/F3 cells expressing EGFR L718Q T790M, 72 hours
Protocol: as §1, §2, §3

[11] = target: EGFR S811F (Homo sapiens, UniProt P00533, S811F); conditions: read-out: IC50 Values; Ba/F3 cells expressing EGFR S811F, 72 hours
Protocol: as §1, §2, §3

[12] = target: EGFR E709A (Homo sapiens, UniProt P00533, E709A); conditions: read-out: IC50 Values; Ba/F3 cells expressing EGFR E709A, 72 hours
Protocol: as §1, §2, §3

[13] = target: EGFR K754E (Homo sapiens, UniProt P00533, K754E); conditions: read-out: IC50 Values; Ba/F3 cells expressing EGFR K754E, 72 hours
Protocol: as §1, §2, §3

[14] = target: EGFR Ex19del G724S (Homo sapiens, UniProt P00533, DEL746-750/G724S); conditions: read-out: IC50 Values; Ba/F3 cells expressing EGFR Ex19del G724S, 72 hours
Protocol: as §4, §5, §3

[15] = target: EGFR E709K (Homo sapiens, UniProt P00533, E709K); conditions: read-out: IC50 Values; Ba/F3 cells expressing EGFR E709K, 72 hours
Protocol: as §1, §2, §3

[16] = target: EGFR R776C (Homo sapiens, UniProt P00533, R776C); conditions: read-out: IC50 Values; Ba/F3 cells expressing EGFR R776C, 72 hours
Protocol: as §1, §2, §3

[17] = target: EGFR S720P (Homo sapiens, UniProt P00533, S720P); conditions: read-out: IC50 Values; Ba/F3 cells expressing EGFR S720P, 72 hours
Protocol: as §1, §2, §3

[18] = target: EGFR L718Q (Homo sapiens, UniProt P00533, L718Q); conditions: read-out: IC50 Values; Ba/F3 cells expressing EGFR L718Q, 72 hours
Protocol: as §1, §2, §3

[19] = target: EGFR S768I/V769L (Homo sapiens, UniProt P00533, S768I/V769L); conditions: read-out: IC50 Values; Ba/F3 cells expressing EGFR S768I/V769L, 72 hours
Protocol: as §1, §2, §3

[20] = target: EGFR Ex19del L718Q (Homo sapiens, UniProt P00533, DEL746-750/L718Q); conditions: read-out: IC50 Values; Ba/F3 cells expressing EGFR Ex19del L718Q, 72 hours
Protocol: as §4, §5, §3

Sequence of EGFR Ex19del/C797S (P00533 with tags, fused parts or gaps DEL746-750/C797S): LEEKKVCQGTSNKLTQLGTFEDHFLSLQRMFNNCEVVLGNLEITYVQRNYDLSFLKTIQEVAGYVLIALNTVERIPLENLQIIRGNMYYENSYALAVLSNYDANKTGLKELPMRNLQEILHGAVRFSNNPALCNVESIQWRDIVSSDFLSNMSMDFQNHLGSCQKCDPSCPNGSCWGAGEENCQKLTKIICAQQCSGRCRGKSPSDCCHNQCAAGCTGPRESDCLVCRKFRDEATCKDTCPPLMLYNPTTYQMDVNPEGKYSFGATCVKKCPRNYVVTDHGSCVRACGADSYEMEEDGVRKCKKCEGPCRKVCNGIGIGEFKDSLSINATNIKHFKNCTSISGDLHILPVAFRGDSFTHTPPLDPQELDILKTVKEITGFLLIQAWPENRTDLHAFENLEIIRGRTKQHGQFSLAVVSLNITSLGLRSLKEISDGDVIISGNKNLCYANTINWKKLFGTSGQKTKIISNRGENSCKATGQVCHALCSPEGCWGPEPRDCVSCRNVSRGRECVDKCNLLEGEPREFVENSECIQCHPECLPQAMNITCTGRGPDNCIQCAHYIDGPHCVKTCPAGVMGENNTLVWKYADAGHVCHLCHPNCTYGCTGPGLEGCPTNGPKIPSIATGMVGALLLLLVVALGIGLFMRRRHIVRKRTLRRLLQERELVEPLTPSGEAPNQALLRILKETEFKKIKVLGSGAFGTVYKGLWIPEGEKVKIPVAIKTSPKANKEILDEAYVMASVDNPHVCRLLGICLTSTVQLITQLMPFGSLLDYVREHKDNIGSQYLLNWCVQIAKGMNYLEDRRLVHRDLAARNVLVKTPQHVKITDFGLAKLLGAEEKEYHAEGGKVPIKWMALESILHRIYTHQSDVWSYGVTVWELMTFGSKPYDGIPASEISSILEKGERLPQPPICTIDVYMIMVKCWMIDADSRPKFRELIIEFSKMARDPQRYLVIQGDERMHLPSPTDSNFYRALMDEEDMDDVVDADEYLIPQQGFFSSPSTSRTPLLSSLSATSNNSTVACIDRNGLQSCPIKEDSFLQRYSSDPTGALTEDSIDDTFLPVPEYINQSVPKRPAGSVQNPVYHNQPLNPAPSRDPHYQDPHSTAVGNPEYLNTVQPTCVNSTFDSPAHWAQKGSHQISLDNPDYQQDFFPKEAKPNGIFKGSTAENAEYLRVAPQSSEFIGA
Sequence of EGFR E709A (P00533 25-1210 E709A): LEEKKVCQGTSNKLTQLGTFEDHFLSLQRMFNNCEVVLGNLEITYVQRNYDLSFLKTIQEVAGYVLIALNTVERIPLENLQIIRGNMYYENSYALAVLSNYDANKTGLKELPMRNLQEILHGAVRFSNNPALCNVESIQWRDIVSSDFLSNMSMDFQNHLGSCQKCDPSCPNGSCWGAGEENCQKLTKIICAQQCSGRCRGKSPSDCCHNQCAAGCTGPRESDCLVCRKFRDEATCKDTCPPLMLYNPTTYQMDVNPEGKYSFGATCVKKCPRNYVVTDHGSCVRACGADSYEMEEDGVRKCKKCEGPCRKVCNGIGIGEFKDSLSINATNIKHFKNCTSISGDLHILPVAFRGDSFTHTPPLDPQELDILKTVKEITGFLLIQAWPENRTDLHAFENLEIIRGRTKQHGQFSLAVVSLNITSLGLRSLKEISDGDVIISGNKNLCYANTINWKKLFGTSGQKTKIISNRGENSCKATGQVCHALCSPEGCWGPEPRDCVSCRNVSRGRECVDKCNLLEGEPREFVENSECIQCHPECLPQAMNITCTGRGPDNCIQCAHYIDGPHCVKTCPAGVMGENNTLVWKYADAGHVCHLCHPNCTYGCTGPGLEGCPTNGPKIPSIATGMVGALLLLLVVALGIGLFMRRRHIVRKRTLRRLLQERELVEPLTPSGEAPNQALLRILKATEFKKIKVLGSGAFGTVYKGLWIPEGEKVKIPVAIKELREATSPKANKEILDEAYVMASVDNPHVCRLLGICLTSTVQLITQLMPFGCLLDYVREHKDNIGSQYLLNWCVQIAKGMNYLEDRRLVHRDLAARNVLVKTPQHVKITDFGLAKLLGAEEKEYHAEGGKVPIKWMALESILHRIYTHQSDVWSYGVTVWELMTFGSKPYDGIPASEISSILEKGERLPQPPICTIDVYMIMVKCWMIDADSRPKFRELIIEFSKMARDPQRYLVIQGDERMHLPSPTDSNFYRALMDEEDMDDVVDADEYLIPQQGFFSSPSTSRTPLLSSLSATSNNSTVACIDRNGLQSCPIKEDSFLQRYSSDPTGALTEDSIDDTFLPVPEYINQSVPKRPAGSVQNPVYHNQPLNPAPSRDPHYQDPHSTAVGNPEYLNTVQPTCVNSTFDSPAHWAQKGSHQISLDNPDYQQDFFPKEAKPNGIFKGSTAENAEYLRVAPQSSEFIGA
Sequence of EGFR A767insASV (P00533 with tags, fused parts or gaps DUP767-769): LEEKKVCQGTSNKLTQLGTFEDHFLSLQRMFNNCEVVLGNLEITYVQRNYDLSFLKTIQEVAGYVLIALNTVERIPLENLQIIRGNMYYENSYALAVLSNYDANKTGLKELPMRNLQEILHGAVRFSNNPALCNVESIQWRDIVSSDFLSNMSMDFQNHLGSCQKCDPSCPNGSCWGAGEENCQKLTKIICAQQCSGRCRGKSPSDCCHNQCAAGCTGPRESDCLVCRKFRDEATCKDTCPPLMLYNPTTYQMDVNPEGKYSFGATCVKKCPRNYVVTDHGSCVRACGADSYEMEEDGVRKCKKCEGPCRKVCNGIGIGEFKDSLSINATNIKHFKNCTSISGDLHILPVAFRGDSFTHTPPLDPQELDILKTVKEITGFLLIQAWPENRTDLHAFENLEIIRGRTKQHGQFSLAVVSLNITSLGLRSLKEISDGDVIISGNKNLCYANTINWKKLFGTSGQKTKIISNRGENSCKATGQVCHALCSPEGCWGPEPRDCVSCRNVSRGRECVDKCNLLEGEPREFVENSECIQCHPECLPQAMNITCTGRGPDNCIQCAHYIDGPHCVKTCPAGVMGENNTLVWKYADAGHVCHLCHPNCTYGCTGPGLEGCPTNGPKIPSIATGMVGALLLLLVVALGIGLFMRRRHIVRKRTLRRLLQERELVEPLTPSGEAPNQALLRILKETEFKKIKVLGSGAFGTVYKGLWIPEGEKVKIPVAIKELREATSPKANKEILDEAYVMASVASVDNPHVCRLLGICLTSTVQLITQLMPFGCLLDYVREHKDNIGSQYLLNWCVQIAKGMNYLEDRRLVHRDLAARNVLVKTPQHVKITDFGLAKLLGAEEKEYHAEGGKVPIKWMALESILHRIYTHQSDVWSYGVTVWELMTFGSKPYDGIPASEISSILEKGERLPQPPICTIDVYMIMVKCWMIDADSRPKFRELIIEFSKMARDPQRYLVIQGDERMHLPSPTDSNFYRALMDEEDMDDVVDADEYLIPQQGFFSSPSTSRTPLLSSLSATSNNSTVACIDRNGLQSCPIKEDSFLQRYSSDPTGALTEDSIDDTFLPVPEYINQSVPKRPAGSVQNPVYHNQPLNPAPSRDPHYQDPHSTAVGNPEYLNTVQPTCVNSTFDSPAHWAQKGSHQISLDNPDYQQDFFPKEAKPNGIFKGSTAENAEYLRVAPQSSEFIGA
Sequence of EGFR L833V (P00533 25-1210 L833V): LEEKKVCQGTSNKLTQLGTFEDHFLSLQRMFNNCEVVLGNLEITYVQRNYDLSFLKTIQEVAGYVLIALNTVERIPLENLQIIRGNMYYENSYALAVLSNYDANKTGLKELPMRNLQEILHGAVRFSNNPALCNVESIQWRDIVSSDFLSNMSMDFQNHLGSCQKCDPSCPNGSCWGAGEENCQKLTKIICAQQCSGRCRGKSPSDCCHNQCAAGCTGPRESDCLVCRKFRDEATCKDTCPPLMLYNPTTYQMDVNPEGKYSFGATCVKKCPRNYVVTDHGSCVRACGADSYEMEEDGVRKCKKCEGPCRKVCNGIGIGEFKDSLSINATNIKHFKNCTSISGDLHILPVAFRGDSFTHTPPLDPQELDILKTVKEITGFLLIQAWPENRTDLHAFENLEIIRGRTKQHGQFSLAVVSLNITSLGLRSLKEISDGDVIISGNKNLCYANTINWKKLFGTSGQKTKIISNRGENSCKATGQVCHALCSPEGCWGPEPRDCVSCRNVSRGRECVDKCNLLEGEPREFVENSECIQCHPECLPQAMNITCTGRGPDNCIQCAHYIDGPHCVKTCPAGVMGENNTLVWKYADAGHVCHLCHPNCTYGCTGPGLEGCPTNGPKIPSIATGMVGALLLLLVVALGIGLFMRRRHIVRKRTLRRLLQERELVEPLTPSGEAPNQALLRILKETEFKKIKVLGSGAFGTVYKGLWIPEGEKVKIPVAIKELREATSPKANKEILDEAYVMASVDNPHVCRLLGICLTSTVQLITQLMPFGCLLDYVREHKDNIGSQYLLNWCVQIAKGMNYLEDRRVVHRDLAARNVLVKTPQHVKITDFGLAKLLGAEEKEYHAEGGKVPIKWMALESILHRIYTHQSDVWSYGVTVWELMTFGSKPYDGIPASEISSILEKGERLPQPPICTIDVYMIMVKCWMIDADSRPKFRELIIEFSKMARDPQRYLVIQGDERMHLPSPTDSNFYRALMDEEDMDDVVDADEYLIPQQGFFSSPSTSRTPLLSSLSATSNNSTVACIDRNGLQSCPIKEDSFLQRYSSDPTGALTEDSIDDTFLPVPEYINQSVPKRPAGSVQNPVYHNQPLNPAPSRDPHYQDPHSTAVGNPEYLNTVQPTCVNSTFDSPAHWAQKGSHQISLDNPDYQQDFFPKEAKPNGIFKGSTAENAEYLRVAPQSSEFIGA

`C=CC(=O)N1CC[C@@H](Oc2nc(Nc3ccc(N4CCC(N5CCN(C)CC5)CC4)cc3)c(C(N)=O)nc2CC)C1` [Naquotinib] gave an IC50 [1] of 0.00058 µM, an IC50 [2] of 0.0677 µM and an IC50 [3] of 0.00422 µM. The IC50 [4] was 0.00772 µM, the IC50 [5] was 0.217 µM and the IC50 [6] was 0.411 µM. It also gave an IC50 [7] of 0.402 µM, an IC50 [8] of 1.97 µM and an IC50 [9] of 1.54 µM. The IC50 [10] was 0.212 µM, the IC50 [11] was 0.173 µM and the IC50 [12] was 0.255 µM. The IC50 [13] was 0.066 µM, the IC50 [14] was 0.697 µM and the IC50 [15] was 0.359 µM. It also gave an IC50 [16] of 0.575 µM, an IC50 [17] of 0.0529 µM and an IC50 [18] of 0.734 µM. The IC50 [19] was 0.234 µM and the IC50 [20] was 0.00264 µM.
